In patent US8828908B2, “Herbicidally active bicyclic 1,3-dione compounds” (Syngenta Limited, priority 2007, dated 2014):

Columns and labels:
Type in all cases: in vivo
Setaria faberi (SETFA) [1] = assay: Example B post-emergence herbicidal greenhouse test; conditions: 360 h, evaluated after 15 days, 100=total damage to plant, 0=no damage
Experimental: (§1) Seeds of a variety of test species were sown in standard soil in pots. After cultivation for one day (pre-emergence) or after 10 days cultivation (post-emergence) under controlled conditions in a glasshouse, the plants were sprayed with an aqueous spray solution derived from the formulation of the technical active ingredient in 0.6 ml acetone and 45 ml formulation solution containing 10.6% Emulsogen EL (Registry number 61791-12-6), 42.2% N-methylpyrrolidone, 42.2% dipropylene glycol monomethyl ether (Registry number 34590-94-8) and 0.2% X-77 (Registry number 11097-66-8). The test plants were then grown in a greenhouse under optimum conditions until, 15 days later for post-emergence and 20 days for pre-emergence, the test was evaluated (100=total damage to plant; 0=no damage to plant).
(§2) Alopecurus myosuroides (ALOMY), Avena fatua (AVEFA), Lolium perenne (LOLPE), Setaria faberi (SETFA), Digitaria sanguinalis (DIGSA), Echinochloa crus-galli (ECHCG)

[2] = test system: Digitaria sanguinalis (DIGSA); assay: as above; conditions: 360 h, evaluated after 15 days, 100=total damage to plant, 0=no damage
Experimental: as §1, §2

Avena fatua (AVEFA) [3] = assay: as above; conditions: 360 h, evaluated after 15 days, 100=total damage to plant, 0=no damage
Experimental: as §1, §2

[4] = test system: Echinochloa crus-galli (ECHCG); assay: as above; conditions: 360 h, evaluated after 15 days, 100=total damage to plant, 0=no damage
Experimental: as §1, §2

[5] = test system: Alopecurus myosuroides (ALOMY); assay: as above; conditions: 360 h, evaluated after 15 days, 100=total damage to plant, 0=no damage
Experimental: as §1, §2

Lolium perenne (LOLPE) [6] = assay: as above; conditions: 360 h, evaluated after 15 days, 100=total damage to plant, 0=no damage
Experimental: as §1, §2

Setaria faberi (SETFA) [7] = assay: Example A post-emergence herbicidal glasshouse test; conditions: 312 h, evaluated after 13 days, 100=total damage to plant, 0=no damage
Experimental: (§3) Seeds of a variety of test species were sown in standard soil in pots. After cultivation for one day (pre-emergence) or after 8 days cultivation (post-emergence) under controlled conditions in a glasshouse (at 24/16° C., day/night; 14 hours light; 65% humidity), the plants were sprayed with an aqueous spray solution derived from the formulation of the technical active ingredient in acetone/water (50:50) solution containing 0.5% Tween 20 (polyoxyethelyene sorbitan monolaurate, CAS RN 9005-64-5). The test plants were then grown in a glasshouse under controlled conditions in a glasshouse (at 24/16° C., day/night; 14 hours light; 65% humidity) and watered twice daily. After 13 days for pre and post-emergence, the test was evaluated (100=total damage to plant; 0=no damage to plant).
(§4) Alopecurus myosuroides (ALOMY), Avena fatua (AVEFA), Setaria faberi (SETFA), Echinochloa crus-galli (ECHCG), Solanum nigrum (SOLNI) and Amaranthus retroflexus (AMARE)

Avena fatua (AVEFA) [8] = assay: as above; conditions: 312 h, evaluated after 13 days, 100=total damage to plant, 0=no damage
Experimental: as §3, §4

[9] = test system: Echinochloa crus-galli (ECHCG); assay: as above; conditions: 312 h, evaluated after 13 days, 100=total damage to plant, 0=no damage
Experimental: as §3, §4

[10] = test system: Amaranthus retroflexus (AMARE); assay: as above; conditions: 312 h, evaluated after 13 days, 100=total damage to plant, 0=no damage
Experimental: as §3, §4

[11] = test system: Alopecurus myosuroides (ALOMY); assay: as above; conditions: 312 h, evaluated after 13 days, 100=total damage to plant, 0=no damage
Experimental: as §3, §4

Setaria faberi (SETFA) [12] = assay: Example A pre-emergence herbicidal glasshouse test; conditions: 312 h, Rate 250 g/ha, evaluated after 13 days, 100=total damage to plant, 0=no damage to plant
Experimental: as §3, §4

Avena fatua (AVEFA) [13] = assay: Example A pre-emergence herbicidal glasshouse test; conditions: 312 h, Rate 250 g/ha, evaluated after 13 days, 100=total damage to plant, 0=no damage to plant
Experimental: as §3, §4

[14] = test system: Echinochloa crus-galli (ECHCG); assay: Example A pre-emergence herbicidal glasshouse test; conditions: 312 h, Rate 250 g/ha, evaluated after 13 days, 100=total damage to plant, 0=no damage to plant
Experimental: as §3, §4

[15] = test system: Amaranthus retroflexus (AMARE); assay: Example A pre-emergence herbicidal glasshouse test; conditions: 312 h, Rate 250 g/ha, evaluated after 13 days, 100=total damage to plant, 0=no damage to plant
Experimental: as §3, §4

[16] = test system: Alopecurus myosuroides (ALOMY); assay: Example A pre-emergence herbicidal glasshouse test; conditions: 312 h, Rate 250 g/ha, evaluated after 13 days, 100=total damage to plant, 0=no damage to plant
Experimental: as §3, §4

Setaria faberi (SETFA) [17] = assay: Example B pre-emergence herbicidal greenhouse test; conditions: 480 h, evaluated after 20 days, 100=total damage to plant, 0=no damage
Experimental: as §1, §2

[18] = test system: Digitaria sanguinalis (DIGSA); assay: Example B pre-emergence herbicidal greenhouse test; conditions: 480 h, evaluated after 20 days, 100=total damage to plant, 0=no damage
Experimental: as §1, §2

Avena fatua (AVEFA) [19] = assay: Example B pre-emergence herbicidal greenhouse test; conditions: 480 h, evaluated after 20 days, 100=total damage to plant, 0=no damage
Experimental: as §1, §2

[20] = test system: Echinochloa crus-galli (ECHCG); assay: Example B pre-emergence herbicidal greenhouse test; conditions: 480 h, evaluated after 20 days, 100=total damage to plant, 0=no damage
Experimental: as §1, §2

[21] = test system: Alopecurus myosuroides (ALOMY); assay: Example B pre-emergence herbicidal greenhouse test; conditions: 480 h, evaluated after 20 days, 100=total damage to plant, 0=no damage
Experimental: as §1, §2

Lolium perenne (LOLPE) [22] = assay: Example B pre-emergence herbicidal greenhouse test; conditions: 480 h, evaluated after 20 days, 100=total damage to plant, 0=no damage
Experimental: as §1, §2

Structure (SMILES) | pest or weed control at 125 g/ha (Setaria faberi (SETFA) [1]) | pest or weed control at 125 g/ha [2] | pest or weed control at 125 g/ha (Avena fatua (AVEFA) [3]) | pest or weed control at 125 g/ha [4] | pest or weed control at 125 g/ha [5] | pest or weed control at 125 g/ha (Lolium perenne (LOLPE) [6]) | pest or weed control at 250 g/ha (Setaria faberi (SETFA) [7]) | pest or weed control at 250 g/ha (Avena fatua (AVEFA) [8]) | pest or weed control at 250 g/ha [9] | pest or weed control at 250 g/ha [10] | pest or weed control at 250 g/ha [11] | pest or weed control at 250 g/ha (Setaria faberi (SETFA) [12]) | pest or weed control at 250 g/ha (Avena fatua (AVEFA) [13]) | pest or weed control at 250 g/ha [14] | pest or weed control at 250 g/ha [15] | pest or weed control at 250 g/ha [16] | pest or weed control at 250 g/ha (Setaria faberi (SETFA) [17]) | pest or weed control at 250 g/ha [18] | pest or weed control at 250 g/ha (Avena fatua (AVEFA) [19]) | pest or weed control at 250 g/ha [20] | also measured
CCc1ccc(-c2ccc(Cl)cc2Cl)cc1C1=C(OC(=O)OC)[C@H]2CC[C@H](C2)C1=O (single isomer, unassigned) [Compound P4, carbonic acid 3-(2′,4′-dichloro-4-ethylbiphen-3-yl)-4-oxo-bicyclo[3.2.1]oct-2-en-2-yl ester methyl ester] | 100% | 100% | 80% | 100% | 100% | 90% | 100% | 90% | 100% | 0% | 100% | 100% | 50% | 90% | 40% | 80% | 100% | 100% | 70% | 100% | pest or weed control at 250 g/ha [21]: 90%; pest or weed control at 250 g/ha (Lolium perenne (LOLPE) [22]): 90%
CCc1ccc(-c2ccc(Cl)cc2Cl)cc1C1=C(OC(C)=O)[C@H]2CC[C@H](C2)C1=O (single isomer, unassigned) [Compound P7] | 100% | 90% | 80% | 100% | 60% | 70% | 100% | 100% | 100% | 0% | 90% | 100% | 90% | 100% | 0% | 40% | 80% | 80% | 30% | 50% | pest or weed control at 250 g/ha [21]: 70%; pest or weed control at 250 g/ha (Lolium perenne (LOLPE) [22]): 70%
CCc1ccc(-c2ccc(Cl)cc2C)cc1C1=C(O)[C@H]2CC[C@H](C2)C1=O (single isomer, unassigned) [Compound T33] | 100% | 60% | 70% | 100% | 60% | 20% | 100% | 60% | 100% | 0% | 60% | 90% | 20% | 90% | 0% | 60% | 70% | 70% | 20% | 70% | pest or weed control at 250 g/ha [21]: 60%; pest or weed control at 250 g/ha (Lolium perenne (LOLPE) [22]): 70%
CCc1ccc(-c2ccc(Cl)c(C#N)c2)cc1C1=C(O)[C@H]2CC[C@H](C2)C1=O (single isomer, unassigned) [Compound T34] | 40% | 40% | 10% | 80% | 0% | 0% | 90% | 70% | 100% | 0% | 70% | 100% | 0% | 70% | 0% | 60% | 90% | 90% | 40% | 90% | pest or weed control at 250 g/ha [21]: 40%; pest or weed control at 250 g/ha (Lolium perenne (LOLPE) [22]): 40%
